Experimental data from patent US6696480B2, “Upregulation of type III endothelial cell nitric oxide synthase by agents that disrupt actin cytoskeletal organization” (Brigham and Women's Hospital, Inc., priority 1998, dated 2004).
Where two headings read alike, the source gives them in different places.

Key:
ecNOS = ecNOS activity, LNMA-inhibitable nitrite production (modified nitrite assay); assay type: cell-based, human; conditions: for nitrite production: L-mevalonate
ecNOS mRNA = assay: Northern blotting of ecNOS steady-state mRNA in endothelial cells; assay type: cell-based, human; design: ecNOS mRNA levels increased to / ecNOS mRNA levels, % of basal levels / effect on basal ecNOS mRNA levels: unit of the concentration uncertain; conditions: for effect on ecNOS expression (mRNA): 24 hours (FIGS. 9, 11), anaphicoline data not shown
Description: (§1) Equal amounts of total RNA (10-20 mg) were separated by 1.2% formaldehyde-agarose gel electrophoresis and transferred overnight onto Hybond nylon membranes. […] All Northern blots were subjected to stringent washing conditions (0.2× SSC/0.1% SDS at 65° C.) prior to autoradiography. RNA loading was determined by rehybridization with human GAPDH probe.

ecNOS protein [1] = tested on: ecNOS protein; design: ecNOS protein levels: dose or concentration left out as unconfirmed
[2] = tested on: cerebral ischemia, left middle cerebral artery (MCA) occlusion; assay: Murine model of cerebral vascular ischemia (MCA occlusion); assay type: in vivo, SV-129 mice; conditions: lovastatin, at higher relative concentrations (data not shown)
Source text: Ischemia was produced by occluding the left middle cerebral artery (MCA) with a coated 8.0 nylon monofilament under anesthesia as described (Huang, Z et al., J Cereb Blood Flow Metab, 1996, 16:981-987, Huang, Z et al., Science, 1994, 265:1883-1885, Hara, H et al., J Cereb Blood Flow Metab, 1997, 1:515-526). Arterial blood pressure, heart rate, arterial oxygen pressure, and partial pressure of carbon dioxide were monitored as described (Huang, Z et al., J Cereb Blood Flow Metab, 1996, 16:981-987, Huang, Z et al., Science, 1994, 265:1883-1885, Hara, H et al., J Cereb Blood Flow Metab, 1997, 1:515-526). The filaments were withdrawn after 2 hours and after 24 h, mice were either sacrificed or tested for neurological deficits using a well-established, standardized, observer-blinded protocol as described (Huang, Z et al., J Cereb Blood Flow Metab, 1996, 16:981-987, Huang, Z et al., Science, 1994, 265:1883-1885, Hara, H et al., J Cereb Blood Flow Metab, 1997, 1:515-526). The motor deficit score range from 0 (no deficit) to 2 (complete deficit).
Brains were divided into five coronal 2-mm sections using a mouse brain matrix (RBM-200C, Activated Systems, Ann Arbor, Mich., USA). Infarction volume was quantitated with an image analysis system (M4, St. Catharines, Ontario, Canada) on 2% 2,3,5-triphenyltetrazolium chloride stained 2-mm slices. The levels of serum cholesterol, creatinine and transaminases were determined by the Tufts University Veterinary Diagnostic Laboratory (Grafton, Mass.).

[3] = tested on: G-protein as and b-actin mRNA; assay: Northern blotting of G-protein as and b-actin mRNA (selectivity); assay type: cell-based, human; conditions: normoxic or hypoxic conditions
Description: as §1

RhoA [4] = assay: Rho membrane translocation, immunoblot of membrane and cytosol, RhoA; assay type: cell-based, human; conditions: mevastatin
Description: (§2) Autoradiography was performed as described earlier.

RhoB [5] = assay: Rho GTP-binding activity, immunoprecipitation of [35S]GTP S-labeled RhoB; assay type: cell-based, human; design: RhoB GTP-binding activity: dose or concentration left out as unconfirmed
Description: (§3) The Rho GTP-binding activity was determined by immunoprecipitation of [^35 S]GTP S-labeled Rho. Briefly, membrane and cytosolic proteins were isolated as previously desribed (Liao, J K and Homcy, C J, J Clin Invest, 1993, 92:2168-2172). Proteins (20 mg) from control and treated endothelial cells were incubated for 30 min at 37° C. in a buffer containing [35 S]GTP S (20 nM), GTP (2 mM), MgCl22 (5 mM), EGTA (0.1 mM), NaCl (50 mM), creatinine phosphate (4 mM), phosphocreatinine kinase (5 units), ATP (0.1 mM), dithiothreitol (1 mM), leupeptin ([…]), aprotinin (50 mg/ml), and phenylmethanesulfonyl fluoride (PMSF, 2 mM). The assay was terminated with excess unlabeled GTP S (100 mM).
(§4) Samples were then resuspended in 100 ml of immunopricipitation buffer containing Triton-X (1%), SDS (0.1%), NaCl (150 mM), EDTA (5 mM), Tris-HCl (25 mM, pH 7.4), leupeptin (10 mg/ml), aprotinin (10 mg/ml), and PMSF (2 mM). […]
(§5) The pellets were washed four times in a buffer containing HEPES (50 mM, pH 7.4), NaF (100 mM), sodium phosphate (50 mM), NaCl (100 mM), Triton X-100 (1%), and SDS (0.1%). The final pellet containing the immunoprecipitated [35 S]GTP S-labeled Rho proteins was counted in a liquid scintillation counter (LS 1800, Beckman Instruments, Inc. Fullerton, Calif.). Nonspecific activity was determined in the presence of excess unlabeled GTP S (100 mM).

RhoB [6] = assay: Rho membrane translocation, immunoblot of membrane and cytosol, RhoB; assay type: cell-based, human; conditions: mevastatin
Description: as §2

RhoA [7] = assay: Rho GTP-binding activity, immunoprecipitation of [35S]GTP S-labeled RhoA; assay type: cell-based, human; design: RhoA GTP-binding activity: dose or concentration left out as unconfirmed
Description: as §3, §4, §5

ecNOS protein [8] = assay: Overexpression of Rho mutants, immunoblot of ecNOS protein; assay type: cell-based, bovine; conditions: about 24 h after transfection
Description: For transfection studies, bovine rather than human endothelial cells were used because of their higher transfection efficiency by the calcium-phosphate precipitation method (12% vs <4%) (15). Bovine endothelial cells (60-70% confluent) were transfected with 15 mg of the indicated cDNAs: the insertless vector (pcDNA3), pcDNA3-c-myc-wtRhoA (wildtype RhoA), and pcDNA3-c-myc-N 19RhoA (dominant-negative RhoA mutant) (Gebbink, M et al., J Cell Biol, 1997, 137:1603-1613). As an internal control for transfection efficiency, pCMV. b-Gal plasmid (5 mg) was co-transfected. Preliminary results using b-galactosidase staining indicate that cellular transfection efficiency was approximately 10% to 14%. The b-galactosidase activity was determined by a chemiluminescence assay (Dual-Light, Tropix, Bedford, Mass.) using a Berthold L9501 luminometer. Approximately 24 h after transfection, cells were harvested for immunoblot analyses of ecNOS expression. The ecNOS protein levels were then standardized to the corresponding levels of transfected RhoA expression as determined by antisera to the corresponding c-myc tag.

[9] = mevastatin alone or in combination with GGPP or FPP

Source text for human endothelial cells: Confluent endothelial cells were used for all treatment conditions.

CC[C@H](C)C(=O)O[C@H]1C[C@@H](C)C=C2C=C[C@H](C)[C@H](CC[C@@H]3C[C@@H](O)CC(=O)O3)[C@H]21 [lovastatin]
concentration giving similar findings on ecNOS activity, compared to that of simvastatin (ecNOS; normoxia and hypoxia): 10 fold higher
increase in ecNOS mRNA levels compared to ox-LDL alone (ecNOS mRNA; co-treatment with ox-LDL, lovastatin 10 mmol/L, 24 h): 3.6 fold
ecNOS message increased to (ecNOS mRNA; lovastatin (10 μM) alone): 410±21%
ecNOS message increased to (ecNOS mRNA; lovastatin (10 μM) under hypoxia): 350±27%
increase in ecNOS mRNA levels compared to untreated cells (ecNOS mRNA; lovastatin alone): 36%
increase in ecNOS mRNA level compared to untreated cells (ecNOS mRNA; ox-LDL + lovastatin 10 mmol/L, 24 h): 40±9%
effect on ecNOS expression (ecNOS protein [1]; not chemically-activated statin (10)): no effect
reduction of cerebral infarct size [2]: also occurred with lovastatin treatment
change in G-protein as and b-actin mRNA levels [3]: Neither simvastatin nor lovastatin caused any significant change

CC[C@H](C)C(=O)O[C@H]1CCC=C2C=C[C@H](C)[C@H](CC[C@@H]3C[C@@H](O)CC(=O)O3)[C@H]21 [mevastatin, Mevastatin]
potency on a molar basis compared to simvastatin (ecNOS mRNA; upregulation of ecNOS): approximately ten times less potent
potency on a molar basis compared with lovastatin (ecNOS mRNA; upregulation of ecNOS): equally potent
decrease in membrane localization of RhoA (RhoA [4]): 60±5%
increase in RhoA in the cytosol (RhoA [4]): 65±4%
effect on cytosolic RhoB activity (RhoB [5]; [9]): not affected
decrease in membrane localization of RhoB (RhoB [6]): 78±6%
increase in RhoB in the cytosol (RhoB [6]): 87±7%
effect on cytosolic RhoA activity (RhoA [7]; [9]): not affected
concentrations that produce cytotoxicity (human endothelial cells): > 50 µM
observable adverse effects on cellular morphology / viability (human endothelial cells): no observable adverse effects

CC(C)=CCC/C(C)=C/CC/C(C)=C/COP(=O)(O)OP(=O)(O)O [FPP, farnesylpyrophosphate]
RhoB GTP-binding activity (RhoB [5]): 2.7 ± 0.5 fmol/mg/min
observable adverse effects on cellular morphology / viability (human endothelial cells): no observable adverse effects

CC(=O)C(C)=NO [BDM, 2,3-butanedione 2-monoxime]
nonspecific cytotoxicity as cause of increased ecNOS expression (human endothelial cells): does not result from nonspecific cytotoxicity

COC(=O)Nc1nc2cc(C(=O)c3cccs3)ccc2[nH]1 [nocodazole, Methyl-(5-[2-thienylcarbonyl]-1H-benzimidazol-2-yl)carbamate]
effect on ecNOS expression (mRNA) (ecNOS mRNA): do not increase ecNOS expression

anaphicoline
effect on ecNOS expression (mRNA) (ecNOS mRNA): do not increase ecNOS expression

C3 transferase
nitrite accumulation (ecNOS): 31±2.1 nmol/500,000 cells/24 hours
increase in nitrite accumulation (ecNOS; 24 h): 3 fold
increases in ecNOS expression at lower concentrations (ecNOS protein [1]): correspondingly smaller increases
ecNOS protein levels augmented by (ecNOS protein [1]; 48 h): 250±10%
observable adverse effects on cellular morphology / viability (human endothelial cells): no observable adverse effects

wtRhoA: c-myc-tagged wildtype RhoA overexpressed by transfection
reduction of basal ecNOS protein expression (ecNOS protein [8]): 15±4%

C=C1[C@@H](C)[C@H]2[C@H](Cc3ccccc3)NC(=O)[C@]23[C@H](OC(C)=O)/C=C/[C@@](C)(O)C(=O)[C@@H](C)C/C=C/[C@H]3[C@@H]1O [Cytochalasin D]
effect on ecNOS expression (mRNA) (ecNOS mRNA): upregulation of ecNOS
nonspecific cytotoxicity as cause of increased ecNOS expression (human endothelial cells): does not result from nonspecific cytotoxicity

CC(C)=CCC/C(C)=C/CC/C(C)=C/CC/C(C)=C/COP(=O)(O)OP(=O)(O)O [GGPP, geranylgeranylpyrophosphate]
effect on basal ecNOS mRNA levels (ecNOS mRNA; GGPP (10 (unit uncertain)) alone): did not significantly affect
RhoA GTP-binding activity (RhoA [7]): 4.1 ± 0.3 fmol/mg/min
observable adverse effects on cellular morphology / viability (human endothelial cells): no observable adverse effects

L-mevalonate
nitrite production (ecNOS): 8.6±2.9 nmol/500,000 cells/24 h
nitrite production (ecNOS; 3% O2): 9.6±1.3 nmol/500,000 cells/24 h
effect of co-treatment on upregulation of ecNOS expression by simvastatin alone (ecNOS protein [1]; L-mevalonate (100) + simvastatin (1)): completely reversed
effect on basal ecNOS expression (ecNOS protein [1]; L-mevalonate alone (100)): did not have any appreciable effects
ecNOS protein levels (ecNOS protein [1]; L-mevalonic acid (400) co-treatment with simvastatin, hypoxia, 48 h): 35±2.4%
ecNOS protein levels (ecNOS protein [1]; L-mevalonic acid alone, cells exposed to hypoxia): 25±3.9%
observable adverse effects on cellular morphology / viability (human endothelial cells): no observable adverse effects

N19RhoA
increase in ecNOS protein levels (ecNOS protein [8]): 150±5%
